Assay: xn = mol fraction of the nth substance listed

CCCOCCO + O=C1CCCN1
298.15 K, 101 kPa
Conditions | viscosity [mPa·s]
x1 = 0.0058 | 13.97
x1 = 0.015 | 13.55
x1 = 0.035 | 12.83
x1 = 0.0681 | 11.7
x1 = 0.1013 | 10.72
x1 = 0.1517 | 9.453
x1 = 0.2214 | 8.048
x1 = 0.2526 | 7.522
x1 = 0.3008 | 6.831
x1 = 0.3725 | 5.947
x1 = 0.3786 | 5.895
x1 = 0.4257 | 5.419
x1 = 0.4698 | 5.028
x1 = 0.5219 | 4.651
x1 = 0.5519 | 4.44
x1 = 0.6236 | 3.983
x1 = 0.6987 | 3.576
x1 = 0.7597 | 3.317
x1 = 0.8327 | 2.977
x1 = 0.8764 | 2.801
x1 = 0.9045 | 2.695
x1 = 0.9327 | 2.592
x1 = 0.9694 | 2.473
x2 = 0.0135 | 2.409

N#Cc1ccccc1 + ClC(Cl)(Cl)Cl
viscosity [mPa·s], 101 kPa
Conditions | 293.15 K | 298.15 K | 303.15 K | 313.15 K | 323.15 K
x1 = 0.005 | 0.986 | 0.91 | 0.845 | 0.748 | 0.669
x1 = 0.009 | 1.008 | 0.934 | 0.871 | 0.772 | 0.694
x1 = 0.045 | 1.005 | 0.929 | 0.863 | 0.769 | 0.691

CCCOCCO + O=[N+]([O-])c1ccccc1
298.15 K, 101 kPa
Conditions | viscosity [mPa·s]
x2 = 0.0509 | 2.336
x2 = 0.1085 | 2.326
x2 = 0.2052 | 2.316
x2 = 0.3224 | 2.304
x2 = 0.3978 | 2.292
x2 = 0.4501 | 2.279
x2 = 0.5017 | 2.262
x2 = 0.5513 | 2.241
x2 = 0.6026 | 2.216
x2 = 0.6998 | 2.154
x2 = 0.8045 | 2.066
x2 = 0.9028 | 1.957
x2 = 0.9525 | 1.888

CCCOCCO + CCCN
viscosity [mPa·s], 101.33 kPa
Conditions | 298.15 K | 308.15 K | 318.15 K
x1 = 0.0069 | 0.365 | 0.336 | 0.296
x1 = 0.0201 | 0.383 | 0.346 | 0.307
x1 = 0.054 | 0.429 | 0.385 | 0.335
x1 = 0.1049 | 0.509 | 0.446 | 0.382
x1 = 0.1955 | 0.678 | 0.574 | 0.481
x1 = 0.2496 | 0.797 | 0.668 | 0.55
x1 = 0.3215 | 0.969 | 0.8 | 0.655
x1 = 0.3686 | 1.103 | 0.895 | 0.722
x1 = 0.4528 | 1.338 | 1.075 | 0.853
x1 = 0.4581 | 1.355 | 1.088 | 0.862
x1 = 0.5595 | 1.629 | 1.289 | 1.015
x1 = 0.6789 | 1.925 | 1.51 | 1.175
x1 = 0.752 | 2.082 | 1.628 | 1.265
x1 = 0.8162 | 2.191 | 1.715 | 1.32
x1 = 0.8943 | 2.282 | 1.803 | 1.385
x1 = 0.9697 | 2.333 | 1.867 | 1.435

N#Cc1ccccc1 + OCc1ccccc1
303.15 K, 101 kPa
Conditions | viscosity [mPa·s]
x2 = 0.146 | 1.123
x2 = 0.276 | 1.263
x2 = 0.3251 | 1.366
x2 = 0.4147 | 1.535
x2 = 0.5549 | 1.902
x2 = 0.6387 | 2.184
x2 = 0.7443 | 2.635
x2 = 0.8022 | 2.942
x2 = 0.9039 | 3.595

C1CC[C@H]2CCCC[C@@H]2C1 + O=C1CCCCC1
viscosity [mPa·s], 101.3 kPa
Conditions | 293.15 K | 303.15 K
x2 = 0.05 | 2.114 | 1.758
x2 = 0.15 | 2.103 | 1.744
x2 = 0.2415 | 2.105 | 1.737
x2 = 0.3447 | 2.119 | 1.737
x2 = 0.4511 | 2.147 | 1.744
x2 = 0.5088 | 2.168 | 1.75
x2 = 0.6731 | 2.253 | 1.784
x2 = 0.6779 | 2.256 | 1.785
x2 = 0.7761 | 2.326 | 1.815
x2 = 0.8609 | 2.397 | 1.848
x2 = 0.9315 | 2.466 | 1.88

CCCOCCO + CN(C)C=O
298.15 K, 101 kPa
Conditions | viscosity [mPa·s]
x1 = 0.0076 | 0.821
x1 = 0.0172 | 0.834
x1 = 0.029 | 0.846
x1 = 0.0502 | 0.874
x1 = 0.1029 | 0.948
x1 = 0.1416 | 0.998
x1 = 0.1927 | 1.07
x1 = 0.264 | 1.18
x1 = 0.2944 | 1.223
x1 = 0.3428 | 1.289
x1 = 0.3521 | 1.305
x1 = 0.4414 | 1.458
x1 = 0.5181 | 1.582
x1 = 0.5987 | 1.726
x1 = 0.6457 | 1.809
x1 = 0.6982 | 1.895
x1 = 0.7555 | 1.989
x1 = 0.8533 | 2.164
x1 = 0.9398 | 2.308
x1 = 0.9729 | 2.345

CCCCn1cc[n+](C)c1.[Cl-] + CC#N
Conditions | viscosity [mPa·s]
308.15 K, 101 kPa, x2 = 0.7003 | 8.47

N#Cc1ccccc1 + COc1ccccc1
viscosity [mPa·s], 101.33 kPa
Conditions | x2 = 0.0923 | x2 = 0.1792 | x2 = 0.2764 | x2 = 0.3719 | x2 = 0.4735 | x2 = 0.6068 | x2 = 0.7036 | x2 = 0.808 | x2 = 0.8989
293.15 K | 1.315 | 1.3 | 1.27 | 1.235 | 1.191 | 1.164 | 1.149 | 1.134 | 1.119
298.15 K | 1.226 | 1.201 | 1.181 | 1.142 | 1.122 | 1.088 | 1.079 | 1.056 | 1.036

N[C@@H](Cc1ccc(O)cc1)C(=O)O + O
303 K, 100 kPa
Conditions | viscosity [mPa·s]
x1 = 0.00933 | 0.8931
x1 = 0.00952 | 0.911
x1 = 0.00967 | 0.9501
x1 = 0.00975 | 0.9616
x1 = 0.0098 | 0.9874
x1 = 0.00983 | 1

NNc1ccccc1 + Oc1ccccc1
323.1 K, 101 kPa
Conditions | viscosity [mPa·s]
x1 = 0.181 | 5.25
x1 = 0.369 | 7.49
x1 = 0.466 | 8.02
x1 = 0.502 | 8.2
x1 = 0.595 | 8.05
x1 = 0.781 | 6.56

C[N+](C)(C)C.NCC(=O)[O-] + OCC(O)CO
303 K, 101 kPa
Conditions | viscosity [mPa·s]
x1 = 0.065 | 397.5
x1 = 0.13 | 390.8
x1 = 0.21 | 380.1
x1 = 0.29 | 369.3
x1 = 0.48 | 346.5
x1 = 0.71 | 327.7

C[C@H]1CCCC[C@H]1O + C[C@@H]1CCCC[C@H]1O
viscosity [mPa·s], 101 kPa
Conditions | x1 = 0.199 | x1 = 0.302 | x1 = 0.399 | x1 = 0.598 | x1 = 0.691 | x1 = 0.798
298.15 K | 29.88 | 27.1 | 24.51 | 20.97 | 19.75 | 18.87
303.15 K | 20.72 | 19.03 | 17.37 | 15.25 | 14.51 | 13.97

CCCOCCO + CCCCCO
298.15 K, 101.33 kPa
Conditions | viscosity [mPa·s]
x1 = 0.0215 | 3.463
x1 = 0.0339 | 3.418
x1 = 0.0569 | 3.355
x1 = 0.0878 | 3.254
x1 = 0.1148 | 3.179
x1 = 0.1461 | 3.103
x1 = 0.1776 | 3.025
x1 = 0.2194 | 2.928
x1 = 0.2669 | 2.847
x1 = 0.327 | 2.776
x1 = 0.3773 | 2.72
x1 = 0.4289 | 2.667
x1 = 0.4842 | 2.61
x1 = 0.4911 | 2.608
x1 = 0.5387 | 2.574
x1 = 0.5721 | 2.548
x1 = 0.61 | 2.524
x1 = 0.6569 | 2.493
x1 = 0.7066 | 2.458
x1 = 0.7368 | 2.441
x1 = 0.7698 | 2.426
x1 = 0.8114 | 2.404
x1 = 0.8483 | 2.389
x1 = 0.8888 | 2.374
x1 = 0.9244 | 2.363
x1 = 0.963 | 2.353
x2 = 0.0102 | 2.35

— the CheMixHub viscosity set
